Measurements from PubChem BioAssay AID1053168 (Broad Institute, 2014).
The source made the active and inactive calls. No rule for the calls is given here.

Assays:
[1] = tested on: Vaccinia-infected cells, mCherry/Venus stage reporter fluorescence; experiment: Stage specific vaccinia inhibitors, dry powder dose response, infected cell reporter fluorescence (AID 1053168)
[2] = as above; conditions: Vaccinia-infected cells, mCherry/Venus stage reporter fluorescence; at 21 µM (top of the series)

For `C[C@H](O)C#Cc1ccc2c(c1)O[C@H](CN(C)Cc1ccc(-c3ccccc3)cc1)[C@H](C)CN([C@@H](C)CO)S2(=O)=O`, the AC50 ([1]; measured here: Venus reporter AC50) was over 42 µM, the AC50 ([1]; measured here: mCherry reporter AC50) was over 42 µM and the activity change, negative = inhibition [2] was -17.3% (inactive).
